# Measurements reported in BindingDB's records for doi:10.1124/jpet.103.062836 (Bayer Healthcare, 2004).
# Assays:
# [1] = target: Cannabinoid receptor 2 (Homo sapiens, UniProt P34972)
# [2] = target: Cannabinoid receptor 1 (Rattus norvegicus, UniProt P20272)
# Cannabinoid receptor 1, sequence (P20272 whole entry): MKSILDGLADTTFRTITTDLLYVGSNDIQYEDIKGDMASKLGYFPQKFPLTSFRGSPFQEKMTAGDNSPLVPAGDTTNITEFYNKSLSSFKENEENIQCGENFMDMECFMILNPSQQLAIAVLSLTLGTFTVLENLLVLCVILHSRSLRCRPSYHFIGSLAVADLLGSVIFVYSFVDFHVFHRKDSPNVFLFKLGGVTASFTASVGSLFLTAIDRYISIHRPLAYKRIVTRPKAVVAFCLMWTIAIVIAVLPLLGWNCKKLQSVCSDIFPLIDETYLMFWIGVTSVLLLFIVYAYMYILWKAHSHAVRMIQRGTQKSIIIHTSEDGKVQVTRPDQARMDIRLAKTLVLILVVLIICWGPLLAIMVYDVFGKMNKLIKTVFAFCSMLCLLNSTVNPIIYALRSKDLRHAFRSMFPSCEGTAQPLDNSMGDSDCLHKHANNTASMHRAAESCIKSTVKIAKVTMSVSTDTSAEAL
# Cannabinoid receptor 2, sequence (P34972 whole entry): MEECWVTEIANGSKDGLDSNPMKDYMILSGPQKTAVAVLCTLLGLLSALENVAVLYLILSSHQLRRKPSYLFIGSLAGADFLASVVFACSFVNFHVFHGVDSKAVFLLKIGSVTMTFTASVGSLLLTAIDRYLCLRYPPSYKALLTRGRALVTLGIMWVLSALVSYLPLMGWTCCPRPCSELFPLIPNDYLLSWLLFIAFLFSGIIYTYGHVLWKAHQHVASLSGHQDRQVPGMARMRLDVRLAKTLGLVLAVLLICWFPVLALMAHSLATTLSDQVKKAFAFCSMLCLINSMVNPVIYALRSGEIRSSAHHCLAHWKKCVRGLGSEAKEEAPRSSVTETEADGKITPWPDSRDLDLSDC
smiles,measurement,setting,value
N#Cc1c(Oc2cccc(OS(=O)(=O)CCCC(F)(F)F)c2)cccc1C(F)(F)F,Ki,[1],45.5 nM
same,Ki,[2],55.4 nM
